In data set [1] the test system is musculus extensor digitorum longus (EDL) muscle in the mdx mouse. Description: Contractile properties (maximum force) of the musculus extensor digitorum longus measured in vitro at end of treatment of mdx mice. In kind it is in vivo. An excerpt:
The mdx mouse model is the most widely used and investigated animal model in the research of Duchenne muscular dystrophy since the early 1980ies. These mice are characterized by muscle weakness, histological evidence of myopathy and elevated serum levels of creatin kinase (CK) (cf. Bulfield et al. (1984) PNAS 81: 1189-1192). Herein, CK levels are a marker of the breakdown of CK-rich tissues such as skeletal muscles (rhabdomyolysis). The mutation in the mdx mouse is a nonsense mutation (C-to-T transition) in exon 23 that aborts full-length dystrophin expression (cf. Sicinski et al. (1989) Science 244: 1578-1580). Symptoms are moderate and the mean lifespan is reduced by about 25%. During the first two weeks after birth mdx mice are indistinguishable from wild-type mice. Then skeletal muscle necrosis starts until week 6 after birth and thereupon enters in a plateau phase characterized by muscle hypertrophy. […] Many aged mdx mice develop spontaneous sarcoma.
Mice were identified by ear tags. […] These cages were assigned randomly to treatment groups. Animals were monitored daily for changes in behavior.
The experiments were carried out by AGADA Biosciences (Halifax, Canada) on behalf of the applicant. All treatment substances were provided by the applicant. All treatment groups started with 15 mice. Treatment was blinded.
Contractile properties were measured in vitro on the right musculus extensor digitorum longus (EDL) at the end of the study. The mice were anesthetized using ketamine and xylamine. The EDL muscle of the right hindlimb was removed from each mouse and immersed in individual carbogenated baths (95% O2, 5% CO2) containing Ringer's solution (pH 7.4) at 25° C. The muscle was flanked by two electrodes. Using non-fatiguing twitches, the muscle was maintained at 10 mN for force generation. The maximal force was measured with the muscle held at 10 mN. The muscle was stimulated with an electrode to elicit tetanic contractions that are separated by 2-minute rest intervals. […] This plateau was considered the maximum force (mN) generated by the muscle. The cross-sectional area of the muscle was measured based on muscle mass, muscle length, and tissue density. Finally, the muscle specific force (kN/m^2) was calculated based on the cross-sectional area of the muscle and was converted in relation to the individual body weight ([…]).

Data set [2] can be described thus: Body weight of mdx mice measured weekly over the treatment period. The following applies: 1.0 mg/kg (prednisolone oral syrup, deflazacort IP).
Experimental: Animals were received in 2 cohorts (n=49-56; 7-8 per group). Mice were sorted into a total of five treatment groups. The mice of the control groups were wild type C57BL/10ScSnJ and the dmx strain C57BL/10ScSn-Dmdmdx/J. The animals were acclimatized upon arrival to the animal facility for 7 days, housed in cages with up to 5 mice per cage. During the study, 12-hour light/11-hour dark cycles were maintained. Room temperature was maintained between 20° C. and 23° C. Food and water were available ad libitum for the duration of the study. Mice were identified by ear tags. Randomization was done based on the average body weight of the cage. These cages were assigned randomly to treatment groups. Animals were monitored daily for changes in behavior. […]
All treatment compounds were administered via intraperitoneal (IP) injection, with exception of prednisolone that was delivered via oral syrup. […] Once the injection was delivered, the mouse was monitored for a couple of minutes for any adverse side effects. […] Once the complete treatment was delivered the mouse was placed back into its cage and monitored for a couple of minutes for any adverse side effects.
The body weight was measured weekly starting after acclimation of the animals to the facility and the beginning of the treatment (5 weeks of age). […]
The mark [3] stands for this setting: mdx mice, 1.0 mg/kg (prednisolone oral syrup, deflazacort IP).
[4] abbreviates: mdx mice, 1.0 mg/kg (prednisolone oral syrup, deflazacort IP), right EDL in Ringer's solution 25° C., mean ±SEM.

The structures appear in SMILES notation.

For `Nc1cccc2c(=O)[nH][nH]c(=O)c12.[Na]` [5-amino-2,3-dihydro-1,4-phthalazinedione sodium salt], the “dose dependence of the maximum force generated by the muscle” value in data set [1] (mouse, in vivo) is reported as “dose-dependent improvement”. In data set [1] (mouse, in vivo, ip, 5 mg/kg), the “maximum force generated by the muscle (EDL), related to body weight” value (“maximum force generated … to body weight” below) is 106.1±8.0 mN/kg and the “percentual improvement of maximum force in comparison to the untreated mdx mice control group (set as 100%)” value (from here on “percentual improvement … (set as 100%)”) came out at 16.4%.
Consider `CC(=O)OCC(=O)[C@@]12N=C(C)O[C@@H]1C[C@H]1[C@@H]3CCC4=CC(=O)C=C[C@]4(C)[C@H]3[C@@H](O)C[C@@]12C` [deflazacort], for which the “percentual improvement … (set as 100%)” value in data set [1] (setting [3]) worked out at 6.2%. Further, the “maximum force generated … to body weight” value in data set [1] (setting [4]) came to 96.8±5.2 mN/kg.
In the case of `C[C@]12C=CC(=O)C=C1CC[C@@H]1[C@@H]2[C@@H](O)C[C@@]2(C)[C@H]1CC[C@]2(O)C(=O)CO` [prednisolone], the “percentual improvement … (set as 100%)” value in data set [1] (setting [3]) is given as 18.0%. Besides, the “maximum force generated … to body weight” value in data set [1] (setting [4]) amounted to 107.5±7.2 mN/kg. Further, the “difference in body weight (diminished increase)” value in data set [2] (from about week 6) was “about 7%”. In data set [2] (weeks of age 5-10, starting at about week 6), the “body weight increase over the treatment” value is on record as “significantly diminished body weight increase”.

The values above are taken from patent US20250064801A1, “USE OF 5-AMINO-2,3-DIHYDRO-1,4-PHTHALAZINEDIONE IN THE TREATMENT OF CONGENITAL MUSCULAR DYSTROPHIES” (METROPHARM AG, priority 2022, published 2025).
